According to patent US8071605B2, “Piperidine compounds for use in the treatment of bacterial infections” (AstraZeneca AB, priority 2008, dated 2011):

Target: S. aureus GyrB ATPase (Staphylococcus aureus, UniProt P0A0K8)
Experiment: S. aureus GyrB ATPase inhibition (ammonium molybdate/malachite green phosphate detection)
Type: biochemical
Conditions: compound concentration of 1 μM (unless otherwise noted)
Procedure: E. coli GyrB ATPase Inhibition Activity: Compounds can be tested for inhibition of E. coli GyrB ATPase activity using an ammonium molybdate/malachite green-based phosphate detection assay (Lanzetta, P. A., L. J. Alvarez, P. S. Reinach, and O. A. Candia, 1979, 100: 95-97). Assays can be performed in multiwell plates in 30 μl reactions containing: 50 mM Hepes buffer pH 7.5, 75 mM ammonium acetate, 8.0 mM magnesium chloride, 0.5 mM ethylenediaminetetraacetic acid, 5% glycerol, 1 mM 1,4-Dithio-DL-threitol, 200 nM bovine serum albumin, 1.6 μg/ml sheared salmon sperm DNA, 400 pM E. coli GyrA, 400 pM E. coli GyrB, 250 μM ATP, and compound in dimethylsulfoxide. Reactions can be quenched with 30 μl of ammonium molybdate/malachite green detection reagent containing 1.2 mM malachite green hydrochloride, 8.5 mM ammonium molybdate tetrahydrate, and 1 M hydrochloric acid. Plates can be read in an absorbance plate reader at 650 nm and percent inhibition values are calculated using dimethylsulfoxide (2%)-containing reactions as 0% inhibition and EDTA-containing (2.4 μM) reactions as 100% inhibition controls. An IC50 measurement of compound potency for each compound can be determined from reactions performed in the presence of 10 different compound concentrations. E. coli Topoisomerase IV ATPase Inhibition Activity: Compounds can be tested for inhibition of E. coli topoisomerase IV ATPase activity as described above for E. coli GyrB except the 30 μl reactions contained the following: 20 mM TRIS buffer pH 8, 50 mM ammonium acetate, 8 mM magnesium chloride, 5% glycerol, 5 mM 1,4-Dithio-DL-threitol, 0.005% Brij-35, 5 μg/ml sheared salmon sperm DNA, 500 pM E. coli ParC, 500 pM E. coli ParE, 160 μM ATP, and compound in dimethylsulfoxide. An IC50 measurement of compound potency for each compound can be determined from reactions performed in the presence of 10 different compound concentrations. S. aureus GyrB ATPase Inhibition Activity: Compounds may be tested for inhibition of S. aureus GyrB ATPase activity using an ammonium molybdate/malachite green-based phosphate detection assay (Lanzetta, P. A., L. J. Alvarez, P. S. Reinach, and O. A. Candia, 1979, 100: 95-97). Assays can be performed in multiwell plates in 30 μl reactions containing: 50 mM Hepes buffer pH 7.5, 75 mM ammonium acetate, 8.0 mM magnesium chloride, 0.5 mM ethylenediaminetetraacetic acid, 5% glycerol, 1.0 mM 1,4-Dithio-DL-threitol, 200 nM bovine serum albumin, 1.0 μg/ml sheared salmon sperm DNA, 250 pM E. coli GyrA, 250 pM S. aureus GyrB, 250 μM ATP, and compound in dimethylsulfoxide. Reactions can be quenched with 30 μl of ammonium molybdate/malachite green detection reagent containing 1.2 mM malachite green hydrochloride, 8.5 mM ammonium molybdate tetrahydrate, and 1 M hydrochloric acid. Plates can be read in an absorbance plate reader at 650 nm and percent inhibition values can be calculated using dimethylsulfoxide (2%)-containing reactions as 0% inhibition and EDTA-containing (2.4 μM) reactions as 100% inhibition controls. An IC50 measurement of compound potency for each compound can be determined from reactions performed in the presence of 10 different compound concentrations.
Compounds of the invention were tested in an assay substantially similar to the assay described above for measuring the inhibition of S. aureus GyrB ATPase. Percent inhibition of S. aureus GyrB ATPase at a compound concentration of 1 μM (unless otherwise noted) is disclosed in the following table: […]

Chain of S. aureus GyrB ATPase (P0AES4 whole entry): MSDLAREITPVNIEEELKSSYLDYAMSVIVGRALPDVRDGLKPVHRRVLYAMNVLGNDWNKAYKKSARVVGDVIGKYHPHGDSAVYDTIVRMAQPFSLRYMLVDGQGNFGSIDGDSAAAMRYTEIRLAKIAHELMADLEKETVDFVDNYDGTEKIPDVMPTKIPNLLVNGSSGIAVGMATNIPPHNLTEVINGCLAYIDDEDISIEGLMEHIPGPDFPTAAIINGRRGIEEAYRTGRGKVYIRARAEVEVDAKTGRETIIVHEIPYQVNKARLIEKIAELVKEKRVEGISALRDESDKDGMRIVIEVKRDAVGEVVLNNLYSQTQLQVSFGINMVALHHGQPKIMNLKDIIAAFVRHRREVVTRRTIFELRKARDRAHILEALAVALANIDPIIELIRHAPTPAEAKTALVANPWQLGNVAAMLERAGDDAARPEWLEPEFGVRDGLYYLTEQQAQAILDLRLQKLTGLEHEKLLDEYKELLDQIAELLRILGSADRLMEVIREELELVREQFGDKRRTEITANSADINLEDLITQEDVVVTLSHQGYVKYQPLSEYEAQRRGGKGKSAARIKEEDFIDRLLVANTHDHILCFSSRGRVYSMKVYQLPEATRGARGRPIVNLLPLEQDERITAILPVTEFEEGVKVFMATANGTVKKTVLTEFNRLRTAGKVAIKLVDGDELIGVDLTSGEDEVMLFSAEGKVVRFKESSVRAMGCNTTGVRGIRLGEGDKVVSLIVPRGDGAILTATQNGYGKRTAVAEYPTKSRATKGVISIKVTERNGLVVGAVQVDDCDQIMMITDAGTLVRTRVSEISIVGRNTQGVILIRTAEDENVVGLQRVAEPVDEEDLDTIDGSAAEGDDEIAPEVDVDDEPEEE
Chain of S. aureus GyrB ATPase (P0A0K8 whole entry): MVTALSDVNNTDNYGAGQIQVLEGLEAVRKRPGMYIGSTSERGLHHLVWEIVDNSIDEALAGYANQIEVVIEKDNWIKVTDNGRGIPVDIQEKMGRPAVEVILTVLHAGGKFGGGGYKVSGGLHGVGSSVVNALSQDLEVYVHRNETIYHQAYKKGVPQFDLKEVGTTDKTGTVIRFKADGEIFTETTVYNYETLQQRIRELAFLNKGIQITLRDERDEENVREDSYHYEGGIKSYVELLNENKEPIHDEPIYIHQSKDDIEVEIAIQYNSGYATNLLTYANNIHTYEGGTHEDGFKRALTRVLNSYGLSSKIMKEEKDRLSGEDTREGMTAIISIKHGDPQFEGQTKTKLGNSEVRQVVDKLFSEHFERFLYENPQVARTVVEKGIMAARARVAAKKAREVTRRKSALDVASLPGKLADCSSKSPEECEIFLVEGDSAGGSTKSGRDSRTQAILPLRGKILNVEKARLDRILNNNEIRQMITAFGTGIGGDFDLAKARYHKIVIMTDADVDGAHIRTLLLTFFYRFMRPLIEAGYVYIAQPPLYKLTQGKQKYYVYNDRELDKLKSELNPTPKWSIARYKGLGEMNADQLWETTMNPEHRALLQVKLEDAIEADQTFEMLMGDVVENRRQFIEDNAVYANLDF

Point of comparison: `CCO[C@H]1CN(c2nc(-c3cnc(N4CCN(CC5CCCCC5)CC4)cn3)c(C(=O)O)s2)CC[C@H]1NC(=O)c1[nH]c(C)c(Cl)c1Cl` [Example 98], inhibition at 1 µM 116%. Against it:
- Cc1[nH]c(C(=O)N[C@@H]2CCN(c3nc(-c4ncccc4F)c(C(=O)O)s3)C[C@@H]2C)c(C#N)c1Cl [Example 28] — lower, 98%
- Cc1[nH]c(C(=O)N[C@@H]2CCN(c3nc(-c4cnccn4)c(C(=O)O)s3)C[C@@H]2C)c(C#N)c1Cl [Example 29] — lower, 98%
- CO[C@@H]1CN(c2nc(-c3cnc(N4CCN(C)CC4)cn3)c(C(=O)O)s2)CC[C@@H]1NC(=O)c1[nH]c(C)c(Cl)c1Cl [Example 61, 2-[(3R,4S)-4-{[(3,4-dichloro-5-methyl-1H-pyrrol-2-yl)carbonyl]amino}-3-methoxypiperidin-1-yl]-4-[5-(4-methylpiperazin-1-yl)pyrazin-2-yl]-1,3-thiazole-5-carboxylic acid] — lower, 105%
- CO[C@H]1CN(c2nc(-c3cnc(OCCN4CCCC4)cn3)c(C(=O)O)s2)CC[C@H]1NC(=O)c1[nH]c(C)c(Cl)c1Cl [Example 62, 2-[(3S,4R)-4-{[(3,4-dichloro-5-methyl-1H-pyrrol-2-yl)carbonyl]amino}-3-methoxypiperidin-1-yl]-4-{5-[2-(pyrrolidin-1-yl)ethoxy]pyrazin-2-yl}-1,3-thiazole-5-carboxylic acid] — lower, 98%
- CO[C@H]1CN(c2nc(-c3cnc(OCCN(C)C)cn3)c(C(=O)O)s2)CC[C@H]1NC(=O)c1[nH]c(C)c(Cl)c1Cl [Example 63] — lower, 104%
- CO[C@H]1CN(c2nc(-c3cnc(OCCN4CCN(C)CC4)cn3)c(C(=O)O)s2)CC[C@H]1NC(=O)c1[nH]c(C)c(Cl)c1Cl [Example 64] — lower, 104%
- CO[C@H]1CN(c2nc(-c3cnc(OCCC4CCN(C)CC4)cn3)c(C(=O)O)s2)CC[C@H]1NC(=O)c1[nH]c(C)c(Cl)c1Cl [Example 65] — lower, 107%
- CCO[C@H]1CN(c2nc(-c3cnc(N4CCCCC4)cn3)c(C(=O)O)s2)CC[C@H]1NC(=O)c1[nH]c(C)c(Cl)c1Cl [Example 86, 2-[(3S,4R)-4-{[(3,4-dichloro-5-methyl-1H-pyrrol-2-yl)carbonyl]amino}-3-ethoxypiperidin-1-yl]-4-[5-(piperidin-1-yl)pyrazin-2-yl]-1,3-thiazole-5-carboxylic acid] — lower, 105%
- CCO[C@H]1CN(c2nc(-c3cnc(N4CCOCC4)cn3)c(C(=O)O)s2)CC[C@H]1NC(=O)c1[nH]c(C)c(Cl)c1Cl [Example 87] — lower, 109%
- CCO[C@H]1CN(c2nc(-c3cnc(N4CCN(C)CC4)cn3)c(C(=O)O)s2)CC[C@H]1NC(=O)c1[nH]c(C)c(Cl)c1Cl [Example 88] — lower, 107%
- CCO[C@H]1CN(c2nc(-c3cnc(N4CCNCC4)cn3)c(C(=O)O)s2)CC[C@H]1NC(=O)c1[nH]c(C)c(Cl)c1Cl [Example 89] — lower, 110%
- CCO[C@H]1CN(c2nc(-c3cnc(NCCOC)cn3)c(C(=O)O)s2)CC[C@H]1NC(=O)c1[nH]c(C)c(Cl)c1Cl [Example 90] — lower, 103%
- CCO[C@H]1CN(c2nc(-c3cnc(NCCN4CCOCC4)cn3)c(C(=O)O)s2)CC[C@H]1NC(=O)c1[nH]c(C)c(Cl)c1Cl [Example 91] — lower, 105%
- CCO[C@H]1CN(c2nc(-c3cnc(NC(COC)COC)cn3)c(C(=O)O)s2)CC[C@H]1NC(=O)c1[nH]c(C)c(Cl)c1Cl [Example 92] — lower, 102%
- CCO[C@H]1CN(c2nc(-c3cnc(NCCN4CCNC4=O)cn3)c(C(=O)O)s2)CC[C@H]1NC(=O)c1[nH]c(C)c(Cl)c1Cl [Example 93] — lower, 94%
- CCO[C@H]1CN(c2nc(-c3cnc(NCCN(C)C)cn3)c(C(=O)O)s2)CC[C@H]1NC(=O)c1[nH]c(C)c(Cl)c1Cl [Example 94] — lower, 104%
- CCO[C@H]1CN(c2nc(-c3cnc(NCCN4CCN(C)CC4)cn3)c(C(=O)O)s2)CC[C@H]1NC(=O)c1[nH]c(C)c(Cl)c1Cl [Example 95] — lower, 114%
- CCO[C@H]1CN(c2nc(-c3cnc(N4CCN(CC(C)C)CC4)cn3)c(C(=O)O)s2)CC[C@H]1NC(=O)c1[nH]c(C)c(Cl)c1Cl [Example 96] — lower, 104%
- CCO[C@H]1CN(c2nc(-c3cnc(N4CCN(CC5CCCN(C)C5)CC4)cn3)c(C(=O)O)s2)CC[C@H]1NC(=O)c1[nH]c(C)c(Cl)c1Cl (stereo partly drawn) [Example 97] — lower, 112%
- CCO[C@H]1CN(c2nc(-c3cnc(N4CCN(C(CC)CC)CC4)cn3)c(C(=O)O)s2)CC[C@H]1NC(=O)c1[nH]c(C)c(Cl)c1Cl [Example 99] — lower, 106%
- CCO[C@H]1CN(c2nc(-c3cnc(N4CCN(CC)CC4)cn3)c(C(=O)O)s2)CC[C@H]1NC(=O)c1[nH]c(C)c(Cl)c1Cl [Example 100] — lower, 102%
- CCO[C@H]1CN(c2nc(-c3cnc(N4CCN(CCN(CC)CC)CC4)cn3)c(C(=O)O)s2)CC[C@H]1NC(=O)c1[nH]c(C)c(Cl)c1Cl [Example 101] — higher, 117%
- CCO[C@H]1CN(c2nc(-c3cnc(N4CCN[C@H](C)C4)cn3)c(C(=O)O)s2)CC[C@H]1NC(=O)c1[nH]c(C)c(Cl)c1Cl [Example 102] — lower, 112%
- CCO[C@H]1CN(c2nc(-c3cnc(N4CCN(CCO)CC4)cn3)c(C(=O)O)s2)CC[C@H]1NC(=O)c1[nH]c(C)c(Cl)c1Cl [Example 103] — lower, 102%
- CCO[C@H]1CN(c2nc(-c3cnc(N4CCN(CC5CCCO5)CC4)cn3)c(C(=O)O)s2)CC[C@H]1NC(=O)c1[nH]c(C)c(Cl)c1Cl (stereo partly drawn) [Example 104] — lower, 105%
- CO[C@H]1CN(c2nc(-c3cnc(N4CCCCC4)cn3)c(C(=O)O)s2)CC[C@H]1NC(=O)c1[nH]c(C)c(Cl)c1Cl [Example 124] — lower, 112%
- CO[C@H]1CN(c2nc(-c3cnc(N4CCOCC4)cn3)c(C(=O)O)s2)CC[C@H]1NC(=O)c1[nH]c(C)c(Cl)c1Cl [Example 125] — lower, 111%
- CO[C@H]1CN(c2nc(-c3cnc(N4CCNCC4)cn3)c(C(=O)O)s2)CC[C@H]1NC(=O)c1[nH]c(C)c(Cl)c1Cl [Example 126] — lower, 108%
- CO[C@H]1CN(c2nc(-c3cnc(NCCN4CCCC4=O)cn3)c(C(=O)O)s2)CC[C@H]1NC(=O)c1[nH]c(C)c(Cl)c1Cl [Example 127] — lower, 110%
- COCCNc1cnc(-c2nc(N3CC[C@@H](NC(=O)c4[nH]c(C)c(Cl)c4Cl)[C@@H](OC)C3)sc2C(=O)O)cn1 [Example 128] — lower, 110%
- COCC(COC)Nc1cnc(-c2nc(N3CC[C@@H](NC(=O)c4[nH]c(C)c(Cl)c4Cl)[C@@H](OC)C3)sc2C(=O)O)cn1 [Example 129] — lower, 103%
- CO[C@H]1CN(c2nc(-c3cnc(NCCN4CCOCC4)cn3)c(C(=O)O)s2)CC[C@H]1NC(=O)c1[nH]c(C)c(Cl)c1Cl [Example 130] — lower, 107%
- CO[C@H]1CN(c2nc(-c3cnc(NCCN4CCNC4=O)cn3)c(C(=O)O)s2)CC[C@H]1NC(=O)c1[nH]c(C)c(Cl)c1Cl [Example 131] — lower, 108%
- CO[C@H]1CN(c2nc(-c3cnc(NCCN(C)C)cn3)c(C(=O)O)s2)CC[C@H]1NC(=O)c1[nH]c(C)c(Cl)c1Cl [Example 132] — lower, 103%
- CO[C@H]1CN(c2nc(-c3cnc(NCCN4CCN(C)CC4)cn3)c(C(=O)O)s2)CC[C@H]1NC(=O)c1[nH]c(C)c(Cl)c1Cl [Example 133] — lower, 112%
- CO[C@H]1CN(c2nc(-c3cnc(N4CCN(CC(C)C)CC4)cn3)c(C(=O)O)s2)CC[C@H]1NC(=O)c1[nH]c(C)c(Cl)c1Cl [Example 134] — lower, 104%
- CO[C@H]1CN(c2nc(-c3cnc(N4CCN(CC5CCCN(C)C5)CC4)cn3)c(C(=O)O)s2)CC[C@H]1NC(=O)c1[nH]c(C)c(Cl)c1Cl (stereo partly drawn) [Example 135] — lower, 98%
- CO[C@H]1CN(c2nc(-c3cnc(N4CCN(CC5CCCCC5)CC4)cn3)c(C(=O)O)s2)CC[C@H]1NC(=O)c1[nH]c(C)c(Cl)c1Cl [Example 136] — lower, 104%
